Compound	melting point
COc1ccc(Cn2nc(-c3ccccc3Cl)[nH]c2=S)cc1 [Example 54]	153 to 154 °C
COc1ccc(Br)c(-c2nn(Cc3ccccc3)c(=S)[nH]2)c1 [Example 12, 5-(2-Bromo-5-methoxyphenyl)-1,2-dihydro-2-(phenylmethyl)-3H-1,2,4-triazole-3-thione]	154 to 155 °C
S=c1[nH]c(-c2cccnc2Cl)nn1Cc1ccccc1 [Example 16, 5-(2-Chloro-3-pyridinyl)-1,2-dihydro-2-(phenylmethyl)-3H-1,2,4-triazole-3-thione]	155 to 156 °C
COc1ccc(-c2nn(Cc3ccccc3)c(=S)[nH]2)cc1 [Example 23, 1,2-Dihydro-5-(4-methoxyphenyl)-2-(phenylmethyl)-3H-1,2,4-triazole-3-thione]	235 to 237 °C
CSc1ccccc1-c1nn(Cc2ccccc2)c(=S)[nH]1 [Example 38, 1,2-Dihydro-5-[2-(methylthio)phenyl]-2-(phenylmethyl)-3H-1,2,4-triazole-3-thione]	170 to 171 °C
S=c1[nH]c(-c2ccccc2Oc2ccccc2)nn1Cc1ccccc1 [Example 39, 1,2-Dihydro-5-[2-(phenoxy)phenyl]-2-(phenylmethyl)-3H-1,2,4-triazole-3-thione]	158 to 159 °C
FC(F)(F)c1cccc(-c2nn(Cc3ccccc3)c(=S)[nH]2)c1 [Example 10, 1,2-Dihydro-2-(phenylmethyl)-5-[3-(trifluoromethyl)phenyl]-3H-1,2,4-triazole-3-thione]	209 to 210 °C
S=c1[nH]c(-c2ccccc2Cl)nn1Cc1cccc(Oc2ccccc2)c1 [Example 52, 5-(2-Chlorophenyl)-1,2-dihydro-2-[(3-phenyloxy)phenylmethyl]-3H-1,2,4-triazole-3-thione]	137 to 138 °C
S=c1[nH]c(-c2cccc(Oc3ccccc3)c2)nn1Cc1ccccc1 [Example 30, 1,2-Dihydro-5-(3-phenoxyphenyl)-2-(phenylmethyl)-3H-1,2,4-triazole-3-thione]	200 to 202 °C
Cc1ccc(Cn2nc(-c3ccccc3Cl)[nH]c2=S)cc1 [Example 50, 5-(2-Chlorophenyl)-1,2-dihydro-2-(4-methylphenyl)methyl-3H-1,2,4-triazole-3-thione]	162 to 163 °C
O=C(c1ccccc1)c1cccc(-c2nn(Cc3ccccc3)c(=S)[nH]2)c1 [Example 40, 1,2-Dihydro-5-(3-(phenylcarbonyl)phenyl)-2-(phenylmethyl)-3H-1,2,4-triazole-3-thione]	154 to 155 °C
Cc1ccc(-c2nn(Cc3ccccc3)c(=S)[nH]2)cc1 [Example 24, 1,2-Dihydro-5-(4-methylphenyl)-2-(phenylmethyl)-3H-1,2,4-triazole-3-thione]	234 to 235 °C
FC(F)(F)c1ccc(Cn2nc(-c3ccccc3Cl)[nH]c2=S)cc1 [Example 53, 5-(2-Chlorophenyl)-1,2-dihydro-2-[[4-(trifluoromethyl)phenyl]methyl]-3H-1,2,4-triazole-3-thione]	167 to 168 °C
S=c1[nH]c(-c2ccco2)nn1Cc1ccccc1 [Example 11, 5-(2-Furanyl)-1,2-dihydro-2-(phenylmethyl)-3H-1,2,4-triazole-3-thione]	212 to 213 °C
COc1ccccc1-c1nn(Cc2ccccc2)c(=S)[nH]1 [Example 18, 1,2-Dihydro-5-(2-methoxyphenyl)-2-(phenylmethyl)-3H-1,2,4-triazole-3-thione]	142 to 143.5 °C
CC(C)(C)c1ccc(Cn2nc(-c3ccccc3Cl)[nH]c2=S)cc1 [Example 51, 5-(2-Chlorophenyl)-1,2-dihydro-2-[(4(1,1-dimethylethyl)phenyl)methyl]-3H-1,2,4-triazole-3-thione]	211 to 215 °C
COC(=O)c1ccccc1-c1nn(Cc2ccccc2)c(=S)[nH]1 [Example 2, 2-[1,2-Dihydro-1-(phenylmethyl)-5-thioxo-3H-1,2,4-triazol-3-yl]benzoic acid, methyl ester]	129 to 130 °C
S=c1[nH]c(-c2ccc(Oc3ccccc3)cc2)nn1Cc1cccc(Cl)c1 [Example 55, 2-[(3-Chlorophenyl)methyl]-5-(4-phenoxyphenyl)-1,2-dihydro-3H-1,2,4-triazole-3-thione]	183 to 184 °C
Fc1ccc(F)c(Cn2nc(-c3ccccc3Cl)[nH]c2=S)c1 [Example 61, 5-(2-Chlorophenyl)-1,2-dihydro-2-[(2,5-difluorophenyl)methyl]-3H-1,2,4-triazole-3-thione]	161 to 163 °C
COC(=O)c1ccc(-c2nn(Cc3ccccc3)c(=S)[nH]2)cc1 [Example 3, 4-[1,2-Dihydro-1-(phenylmethyl)-5-thioxo-3H-1,2,4-triazol-3-yl]benzoic acid, methyl ester]	> 215 °C
S=c1[nH]c(-c2ccc(Cl)s2)nn1Cc1ccccc1 [Example 4, 5-(5-Chloro-2-thienyl)-1,2-dihydro-2-(phenylmethyl)-3H-1,2,4-triazole-3-thione]	79 to 80 °C
S=c1[nH]c(-c2ccc(Br)cc2)nn1Cc1ccccc1 [Example 26, 5-(4-Bromophenyl)-1,2-dihydro-2-(phenylmethyl)-3H-1,2,4-triazole-3-thione]	250 to 251 °C
S=c1[nH]c(-c2ccncc2)nn1Cc1ccccc1 [Example 14, 1,2-Dihydro-2-(phenylmethyl)-5-(4-pyridinyl)-3H-1,2,4-triazole-3-thione]	160 to 162 °C
S=c1[nH]c(-c2ccccc2Cl)nn1Cc1ccccc1I [Example 59, 5-(2-Chlorophenyl)-1,2-dihydro-2-[(2-iodophenyl)methyl]-3H-1,2,4-triazole-3-thione]	189 to 190 °C
N#Cc1ccc(-c2nn(Cc3ccccc3)c(=S)[nH]2)cc1 [Example 7, 5-(4-Cyanophenyl)-1,2-dihydro-2-(phenylmethyl)-3H-1,2,4-triazole-3-thione]	237 to 238 °C
FC(F)(F)c1ccc(-c2nn(Cc3ccccc3)c(=S)[nH]2)cc1 [Example 21, 1,2-Dihydro-2-(phenylmethyl)-5-[4-(trifluoromethyl)phenyl]-3H-1,2,4-triazole-3-thione]	201 to 203 °C
O=[N+]([O-])c1ccccc1-c1nn(Cc2ccccc2)c(=S)[nH]1 [Example 6, 1,2-Dihydro-5-(2-nitrophenyl)-2-(phenylmethyl)-3H-1,2,4-triazole-3-thione]	147 to 148 °C
S=c1[nH]c(-c2cc(Cl)sc2Cl)nn1Cc1ccccc1 [Example 13, 5-(2,5-Dichloro-3-thienyl)-1,2-dihydro-2-(phenylmethyl)-3H-1,2,4-triazole-3-thione]	160 to 162 °C
Cc1ccccc1-c1nn(Cc2ccccc2)c(=S)[nH]1 [Example 19, 1,2-Dihydro-5-(2-methylphenyl)-2-(phenylmethyl)-3H-1,2,4-triazole-3-thione]	150 to 153 °C

Now from value to compound:

melting point	Compound
227 to 228 °C	S=c1[nH]c(-c2ccc(Cl)c(Cl)c2)nn1Cc1ccccc1 [Example 25, 5-(3,4-Dichlorophenyl)-1,2-dihydro-2-(phenylmethyl)-3H-1,2,4-triazole-3-thione]
173 to 174 °C	COc1cccc(Cn2nc(-c3ccc(Cl)cc3Cl)[nH]c2=S)c1 [Example 33, 5-(2,4-Dichlorophenyl)-1,2-dihydro-2-[(3-methoxyphenyl)methyl]-3H-1,2,4-triazole-3-thione]
205 to 206 °C	S=c1[nH]c(-c2ccc(Cl)cc2Cl)nn1Cc1ccc(Cl)cc1 [Example 45, 2-[(4-Chlorophenyl)methyl]-5-(2,4-dichlorophenyl)-1,2-dihydro-3H-1,2,4-triazole-3-thione]
208 to 209 °C	S=c1[nH]c(-c2cccnc2)nn1Cc1cccc(Cl)c1 [Example 56, 2-[(3-Chlorophenyl)methyl]-5-(3-pyridinyl)-1,2-dihydro-3H-1,2,4-triazole-3-thione]
190 to 191 °C	S=c1[nH]c(-c2ccc(Cl)cc2Cl)nn1Cc1cccc(Cl)c1 [Example 32, 2-[(3-Chlorophenyl)methyl]-5-(2,4-dichlorophenyl)-1,2-dihydro-3H-1,2,4-triazole-3-thione]
169 to 170 °C	S=c1[nH]c(-c2ccc(Cl)cc2Cl)nn1Cc1ccccc1 [Example 27, 5-(2,4-Dichlorophenyl)-1,2-dihydro-2-(phenylmethyl)-3H-1,2,4-triazole-3-thione]
213 °C	S=c1[nH]c(-c2ccccc2)nn1Cc1cccc(Cl)c1 [Example 57, 2-[(3-Chlorophenyl)methyl]-5-phenyl-1,2-dihydro-3H-1,2,4-triazole-3-thione]
207 to 208 °C	Cc1ccc(-c2nn(Cc3cccc(Cl)c3)c(=S)[nH]2)cc1 [Example 47, 2-[(3-Chlorophenyl)methyl]-5-(4-methylphenyl)-1,2-dihydro-3H-1,2,4-triazole-3-thione]
242 to 243 °C	S=c1[nH]c(-c2ccc(Br)cc2)nn1Cc1cccc(Cl)c1 [Example 46, 5-(4-Bromophenyl)-2-[(3-chlorophenyl)methyl]-1,2-dihydro-3H-1,2,4-triazole-3-thione]
175 to 176 °C	S=c1[nH]c(-c2cccc(Cl)c2)nn1Cc1ccccc1 [Example 5, 5-(3-Chlorophenyl)-1,2-dihydro-2-(phenylmethyl)-3H-1,2,4-triazole-3-thione]
125 to 126 °C	Fc1cccc(Cn2nc(-c3ccccc3Cl)[nH]c2=S)c1 [Example 58, 5-(2-Chlorophenyl)-1,2-dihydro-2-[(3-fluorophenyl)methyl]-3H-1,2,4-triazole-3-thione]
135 to 136 °C	Fc1ccc(-c2nn(Cc3ccccc3)c(=S)[nH]2)c(Cl)c1 [Example 22, 5-(2-Chloro-4-fluorophenyl)-1,2-dihydro-2-(phenylmethyl)-3H-1,2,4-triazole-3-thione]
143 to 143.5 °C	S=c1[nH]c(-c2ccccc2Cl)nn1Cc1cccc(Cl)c1 [Example 42, 5-(2-Chlorophenyl)-2-[(3-chlorophenyl)methyl]-1,2-dihydro-3H-1,2,4-triazole-3-thione]
205 to 212 °C	S=c1[nH]c(-c2cc(Cl)cc(Cl)c2)nn1Cc1ccccc1 [Example 29, 5-(3,5-Dichlorophenyl)-1,2-dihydro-2-(phenylmethyl)-3H-1,2,4-triazole-3-thione]

Source: patent US20020086862A1, “Novel compounds” (AstraZeneca AB, priority 1998, published 2002)
